For 15 compounds, IC50 results are on record in patent US8993586B2, “N1/N2-lactam acetyl-CoA carboxylase inhibitors” (Pfizer Inc., priority 2010, dated 2015).

The term IC50 denotes the concentration that gives 50% inhibition.

The target of experiment [1] is recombinant human ACC1 (rhACC1) (Homo sapiens (Human), UniProt Q13085). As to the kind of experiment: recombinant hACC1 Transcreener ADP detection FP assay. The conditions noted are these: 50 μM ATP, 120 min at 25° C. In kind it is biochemical.
Experiment [2] has as its target recombinant human ACC2 (rhACC2) (Homo sapiens (Human), UniProt O00763). As to the kind of experiment: recombinant hACC2 Transcreener ADP detection FP assay. In kind it is biochemical. The following applies: 50 uM ATP, 50 min at 25° C.

recombinant human ACC2 (rhACC2), sequence (O00763 whole entry V2141I): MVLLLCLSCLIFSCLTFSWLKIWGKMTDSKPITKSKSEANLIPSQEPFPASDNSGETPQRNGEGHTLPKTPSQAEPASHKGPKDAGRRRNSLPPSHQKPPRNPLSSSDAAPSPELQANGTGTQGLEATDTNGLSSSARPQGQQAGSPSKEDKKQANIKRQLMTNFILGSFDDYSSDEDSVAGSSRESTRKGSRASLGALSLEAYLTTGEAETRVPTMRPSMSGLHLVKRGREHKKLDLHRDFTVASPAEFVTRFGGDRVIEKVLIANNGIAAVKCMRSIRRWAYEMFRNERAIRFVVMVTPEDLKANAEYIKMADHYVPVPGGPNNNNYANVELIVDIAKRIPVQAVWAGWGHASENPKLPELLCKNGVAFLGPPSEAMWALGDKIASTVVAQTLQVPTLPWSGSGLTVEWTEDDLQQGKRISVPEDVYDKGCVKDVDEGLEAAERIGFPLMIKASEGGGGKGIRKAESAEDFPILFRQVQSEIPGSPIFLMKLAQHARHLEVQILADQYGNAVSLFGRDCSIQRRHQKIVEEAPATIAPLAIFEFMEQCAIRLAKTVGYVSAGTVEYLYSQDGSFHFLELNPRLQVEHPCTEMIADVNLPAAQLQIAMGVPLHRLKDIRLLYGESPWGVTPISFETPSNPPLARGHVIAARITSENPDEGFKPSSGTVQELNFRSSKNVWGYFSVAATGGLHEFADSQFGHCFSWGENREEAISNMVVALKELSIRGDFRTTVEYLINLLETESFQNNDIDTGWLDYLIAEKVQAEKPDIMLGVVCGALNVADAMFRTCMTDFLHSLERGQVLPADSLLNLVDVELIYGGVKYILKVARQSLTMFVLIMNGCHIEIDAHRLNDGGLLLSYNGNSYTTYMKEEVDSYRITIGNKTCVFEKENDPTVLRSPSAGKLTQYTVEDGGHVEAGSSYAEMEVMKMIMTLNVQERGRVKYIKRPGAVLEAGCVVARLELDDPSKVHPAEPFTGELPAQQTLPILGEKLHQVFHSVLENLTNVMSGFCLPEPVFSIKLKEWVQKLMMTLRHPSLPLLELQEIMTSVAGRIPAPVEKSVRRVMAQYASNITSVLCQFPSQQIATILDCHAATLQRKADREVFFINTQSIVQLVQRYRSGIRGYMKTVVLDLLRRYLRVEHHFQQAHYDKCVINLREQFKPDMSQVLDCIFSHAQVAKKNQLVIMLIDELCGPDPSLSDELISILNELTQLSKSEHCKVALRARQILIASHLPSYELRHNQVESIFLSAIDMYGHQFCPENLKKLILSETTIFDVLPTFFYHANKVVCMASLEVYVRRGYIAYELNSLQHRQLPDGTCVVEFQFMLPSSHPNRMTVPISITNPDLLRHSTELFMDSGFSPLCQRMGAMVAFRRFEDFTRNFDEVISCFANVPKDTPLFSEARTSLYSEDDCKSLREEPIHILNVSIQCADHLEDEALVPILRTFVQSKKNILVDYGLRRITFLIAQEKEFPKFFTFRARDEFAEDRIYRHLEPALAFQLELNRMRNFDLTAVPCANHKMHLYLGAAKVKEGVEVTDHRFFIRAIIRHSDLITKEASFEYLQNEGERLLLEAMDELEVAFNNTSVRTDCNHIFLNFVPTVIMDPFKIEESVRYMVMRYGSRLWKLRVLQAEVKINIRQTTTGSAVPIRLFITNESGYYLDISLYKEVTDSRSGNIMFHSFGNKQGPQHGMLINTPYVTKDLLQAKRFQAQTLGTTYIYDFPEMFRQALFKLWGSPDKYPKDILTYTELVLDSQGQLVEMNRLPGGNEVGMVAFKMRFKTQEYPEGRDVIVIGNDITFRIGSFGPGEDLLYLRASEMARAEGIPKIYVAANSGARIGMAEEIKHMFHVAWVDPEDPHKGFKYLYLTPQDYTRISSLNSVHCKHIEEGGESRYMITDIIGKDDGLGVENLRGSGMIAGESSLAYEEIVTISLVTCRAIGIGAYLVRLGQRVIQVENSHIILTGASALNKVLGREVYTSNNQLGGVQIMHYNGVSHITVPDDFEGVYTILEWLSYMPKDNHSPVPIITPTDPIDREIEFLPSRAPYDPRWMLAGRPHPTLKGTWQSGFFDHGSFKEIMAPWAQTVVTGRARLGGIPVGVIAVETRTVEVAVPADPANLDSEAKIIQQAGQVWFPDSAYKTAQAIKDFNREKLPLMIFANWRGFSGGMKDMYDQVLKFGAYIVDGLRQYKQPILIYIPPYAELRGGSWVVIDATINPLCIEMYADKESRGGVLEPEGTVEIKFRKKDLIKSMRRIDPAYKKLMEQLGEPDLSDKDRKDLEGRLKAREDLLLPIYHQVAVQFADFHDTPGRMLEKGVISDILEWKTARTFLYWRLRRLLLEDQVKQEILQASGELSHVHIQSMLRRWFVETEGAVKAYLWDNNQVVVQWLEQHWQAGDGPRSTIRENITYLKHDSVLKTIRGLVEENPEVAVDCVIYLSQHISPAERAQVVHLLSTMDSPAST

In the case of `CC(C)(C)n1cc2c(n1)C(=O)NC1(CCN(C(=O)c3ccc4[nH]nc(C(N)=O)c4c3)CC1)C2` [Example 54], the IC50 in experiment [1] amounted to 21 nM; in experiment [2], 5.1 nM.

Consider `CC(C)(C)n1cc2c(n1)C(=O)NC1(CCN(C(=O)c3ccc4c(N)n[nH]c4c3)CC1)C2` [Example 65], for which the values for the IC50 in experiment [1] and in experiment [2] were 256 nM and 56 nM, respectively.

On to `Cc1cc(C(=O)N2CCC3(CC2)Cc2cn(C(C)(C)C)nc2C(=O)N3)cc2cn[nH]c12` [Example 44], for which the IC50 was 26 nM in experiment [1] and 10 nM in experiment [2].

With `CNc1nccc2cc(C(=O)N3CCC4(CC3)Cc3cn(C(C)(C)C)nc3C(=O)N4)ccc12` [Example 91], the IC50 stood at 240 nM in experiment [1] and 51 nM in experiment [2].

For the compound `CC(C)n1ncc2c1C(=O)NC1(CCN(C(=O)c3ccc4ccncc4c3)CC1)C2` [Example 23], the IC50 in experiment [1] came to 621 nM; in experiment [2] it was 520 nM.

As for `CCc1cc(C(=O)N2CCC3(CC2)Cc2cnn(C(C)C)c2C(=O)N3)cc2cn[nH]c12` [Example 14], the IC50 was 131 nM in experiment [1] and 91 nM in experiment [2].

On to `CC(C)n1ncc2c1C(=O)NC1(CCN(C(=O)c3ccc4c(cnn4C)c3)CC1)C2` [Example 13], for which the IC50 came out at 2040 nM in experiment [1] and 1550 nM in experiment [2].

Turning to `CC(C)(C)n1cc2c(n1)C(=O)NC1(CCN(C(=O)c3ccc4ccnc(NC5CCC5)c4c3)CC1)C2` [Example 118], the IC50 in experiment [1] amounted to 17 nM; in experiment [2], 2.7 nM.

`COc1cc(C(=O)N2CCC3(CC2)Cc2cnn(C(C)C)c2C(=O)N3)cc2[nH]ncc12` [Example 12]: the IC50 came out at 35 nM in experiment [1] and 37 nM in experiment [2].

`Cc1nc2cc(C(=O)N3CCC4(CC3)Cc3cnn(C(C)C)c3C(=O)N4)ccc2[nH]1` [Example 1, 1′-isopropyl-1-(2-methyl-1H-benzo[d]imidazole-5-carbonyl)-4′,6′-dihydrospiro[piperidine-4,5′-pyrazolo[3,4-c]pyridin]-7′(1′H)-one]: the IC50 was found to be 417 nM in experiment [1] and 312 nM in experiment [2].

Regarding `COc1cc(C(=O)N2CCC3(CC2)Cc2cn(C(C)(C)C)nc2C(=O)N3)nc2c(OC)cccc12` [Example 51], the IC50 in experiment [1] came out at 15 nM; in experiment [2], 4.4 nM.

As for `COc1ccc2ccc(C(=O)N3CCC4(CC3)Cc3cnn(C(C)C)c3C(=O)N4)cc2n1` [Example 28], the results for the IC50 in experiment [1] and in experiment [2] were 158 nM and 56 nM, respectively.

In the case of `COc1cccc2ccc(C(=O)N3CCC4(CC3)Cc3cn(C(C)(C)C)nc3C(=O)N4)cc12` [Example 70], the results for the IC50 in experiment [1] and in experiment [2] were 5.8 nM and 2.4 nM, respectively.

For `CNc1n[nH]c2ccc(C(=O)N3CCC4(CC3)Cc3cnn(C(C)C)c3C(=O)N4)cc12` [Example 37], the IC50 was determined as 302 nM in experiment [1] and 127 nM in experiment [2].

As to `COc1ccc2cc(C(=O)N3CCC4(CC3)Cc3cn(C(C)(C)C)nc3C(=O)N4)ccc2c1` [Example 46], the figures for the IC50 in experiment [1] and in experiment [2] were 36 nM and 5.3 nM, respectively.
